# Test results from patent US20250098679A1, “HERBICIDAL PYRIDONE DERIVATIVES” (SYNGENTA CROP PROTECTION AG, priority 2021, published 2025).
# How the values were obtained:
# Assay type in all cases: in vivo
# Conditions in all cases: evaluated after 13 days
# Setaria faberi (SETFA) [1] = test: Pre-emergence Test, Setaria faberi (SETFA)
# [2] = tested on: Echinochloa crus-galli (ECHCG); test: Pre-emergence Test, Echinochloa crus-galli (ECHCG)
# Zea mays (ZEAMX) [3] = test: Pre-emergence Test, Zea mays (ZEAMX)
# [4] = tested on: Ipomoea hederacea (IPOHE); test: Pre-emergence Test, Ipomoea hederacea (IPOHE)
# [5] = tested on: Amaranthus palmeri (AMAPA); test: Pre-emergence Test, Amaranthus palmeri (AMAPA)
# [6] = tested on: Amaranthus retoflexus (AMARE); test: Pre-emergence Test, Amaranthus retoflexus (AMARE)
# Setaria faberi (SETFA) [7] = test: Post-emergence Test, Setaria faberi (SETFA); design: key to percentage damage caused to the plant, SETFA (five-point scale): 5=81-100%, 4=61-80%, 3=41-60%, 2=21-40%, 1=0-20% damage
# In short: (§1)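 Percent plant damage was rated 13 days post-application on a 1–5 scale (1=0-20%, 5=81-100%). Application used an aqueous acetone (50:50)/0.5% Tween 20 spray, normally 1000 g/ha, with controlled glasshouse conditions (24/16 °C, 14 h light, 65% humidity).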
# [8] = tested on: Echinochloa crus-galli (ECHCG); test: Post-emergence Test, Echinochloa crus-galli (ECHCG); design: key to percentage damage caused to the plant, ECHCG (five-point scale): 5=81-100%, 4=61-80%, 3=41-60%, 2=21-40%, 1=0-20% damage
# In short: as §1
# Zea mays (ZEAMX) [9] = test: Post-emergence Test, Zea mays (ZEAMX); design: key to percentage damage caused to the plant, ZEAMX (five-point scale): 5=81-100%, 4=61-80%, 3=41-60%, 2=21-40%, 1=0-20% damage
# In short: as §1
# [10] = tested on: Ipomoea hederacea (IPOHE); test: Post-emergence Test, Ipomoea hederacea (IPOHE); design: key to percentage damage caused to the plant, IPOHE (five-point scale): 5=81-100%, 4=61-80%, 3=41-60%, 2=21-40%, 1=0-20% damage
# In short: as §1
# [11] = tested on: Amaranthus palmeri (AMAPA); test: Post-emergence Test, Amaranthus palmeri (AMAPA); design: key: 5=81-100%, 4=61-80%, 3=41-60%, 2=21-40%, 1=0-20% damage
# In short: as §1
# [12] = tested on: Amaranthus retoflexus (AMARE); test: Post-emergence Test, Amaranthus retoflexus (AMARE); design: key to percentage damage caused to the plant, AMARE (five-point scale): 5=81-100%, 4=61-80%, 3=41-60%, 2=21-40%, 1=0-20% damage
# In short: as §1
smiles,measurement,setting,value
"CCn1c(Cn2nc(C(F)(F)F)cc2Cl)cc(=O)c(C(=O)O)c1-c1ccc(Cl)c(Cl)c1 [Compound 169, 6-[[5-chloro-3-(trifluoromethyl)pyrazol-1-yl]methyl]-2-(3,4-dichlorophenyl)-1-ethyl-4-oxo-pyridine-3-carboxylic acid]","Pre-emergence Test SETFA, percentage damage caused to the plant (five-point scale)",Setaria faberi (SETFA) [1]; 250 g/Ha (*),5 (5=81-100%)
same,"Pre-emergence Test ECHCG, percentage damage caused to the plant (five-point scale)",[2]; 250 g/Ha (*),4 (4=61-80%)
same,"Pre-emergence Test ZEAMX, percentage damage caused to the plant (five-point scale)",Zea mays (ZEAMX) [3]; 250 g/Ha (*),0
same,"Pre-emergence Test IPOHE, percentage damage caused to the plant (five-point scale)",[4]; 250 g/Ha (*),1 (1=0-20%)
same,"Pre-emergence Test AMAPA, percentage damage caused to the plant (five-point scale)",[5]; 250 g/Ha (*),1 (1=0-20%)
same,"Pre-emergence Test AMARE, percentage damage caused to the plant (five-point scale)",[6]; 250 g/Ha (*),1 (1=0-20%)
same,"percentage damage caused to the plant, SETFA (five-point scale)",Setaria faberi (SETFA) [7]; 250 g/Ha,4 (4=61-80%)
same,"percentage damage caused to the plant, ECHCG (five-point scale)",[8]; 250 g/Ha,3 (3=41-60%)
same,"percentage damage caused to the plant, ZEAMX (five-point scale)",Zea mays (ZEAMX) [9]; 250 g/Ha,4 (4=61-80%)
same,"percentage damage caused to the plant, IPOHE (five-point scale)",[10]; 250 g/Ha,4 (4=61-80%)
same,"percentage damage caused to the plant, AMAPA (five-point scale)",[11]; 250 g/Ha,3 (3=41-60%)
same,"percentage damage caused to the plant, AMARE (five-point scale)",[12]; 250 g/Ha,3 (3=41-60%)
"CCn1c(Cn2cnc(Cl)n2)cc(=O)c(C(=O)O)c1-c1ccc(Cl)c(Cl)c1 [Compound 5, 6-[(3-chloro-1,2,4-triazol-1-yl)methyl]-2-(3,4-dichlorophenyl)-1-ethyl-4-oxo-pyridine-3-carboxylic acid]","Pre-emergence Test SETFA, percentage damage caused to the plant (five-point scale)",Setaria faberi (SETFA) [1]; 250 g/Ha (*),2 (2=21-40%)
same,"Pre-emergence Test SETFA, percentage damage caused to the plant (five-point scale)",Setaria faberi (SETFA) [1]; 1000 g/ha,3 (3=41-60%)
same,"Pre-emergence Test ECHCG, percentage damage caused to the plant (five-point scale)",[2]; 250 g/Ha (*),3 (3=41-60%)
same,"Pre-emergence Test ECHCG, percentage damage caused to the plant (five-point scale)",[2]; 1000 g/ha,4 (4=61-80%)
same,"Pre-emergence Test ZEAMX, percentage damage caused to the plant (five-point scale)",Zea mays (ZEAMX) [3]; 250 g/Ha (*),0
same,"Pre-emergence Test ZEAMX, percentage damage caused to the plant (five-point scale)",Zea mays (ZEAMX) [3]; 1000 g/ha,0
same,"Pre-emergence Test IPOHE, percentage damage caused to the plant (five-point scale)",[4]; 250 g/Ha (*),0
same,"Pre-emergence Test IPOHE, percentage damage caused to the plant (five-point scale)",[4]; 1000 g/ha,0
same,"Pre-emergence Test AMAPA, percentage damage caused to the plant (five-point scale)",[5]; 250 g/Ha (*),0
same,"Pre-emergence Test AMAPA, percentage damage caused to the plant (five-point scale)",[5]; 1000 g/ha,2 (2=21-40%)
same,"Pre-emergence Test AMARE, percentage damage caused to the plant (five-point scale)",[6]; 250 g/Ha (*),0
same,"Pre-emergence Test AMARE, percentage damage caused to the plant (five-point scale)",[6]; 1000 g/ha,0
same,"percentage damage caused to the plant, SETFA (five-point scale)",Setaria faberi (SETFA) [7]; 1000 g/ha,4 (4=61-80%)
same,"percentage damage caused to the plant, ECHCG (five-point scale)",[8]; 1000 g/ha,1 (1=0-20%)
same,"percentage damage caused to the plant, ZEAMX (five-point scale)",Zea mays (ZEAMX) [9]; 1000 g/ha,2 (2=21-40%)
same,"percentage damage caused to the plant, IPOHE (five-point scale)",[10]; 1000 g/ha,1 (1=0-20%)
same,"percentage damage caused to the plant, AMAPA (five-point scale)",[11]; 1000 g/ha,1 (1=0-20%)
same,"percentage damage caused to the plant, AMARE (five-point scale)",[12]; 1000 g/ha,1 (1=0-20%)
"CCOC(=O)c1c(-c2ccc(Cl)c(Cl)c2)n(CC)c(Cn2ccc(C(F)(F)F)n2)cc1=O [Compound 1, ethyl 2-(3,4-dichlorophenyl)-1-ethyl-4-oxo-6-[[3-(trifluoromethyl)pyrazol-1-yl]methyl]pyridine-3-carboxylate]","Pre-emergence Test SETFA, percentage damage caused to the plant (five-point scale)",Setaria faberi (SETFA) [1]; 250 g/Ha (*),4 (4=61-80%)
same,"Pre-emergence Test SETFA, percentage damage caused to the plant (five-point scale)",Setaria faberi (SETFA) [1]; 1000 g/ha,4 (4=61-80%)
same,"Pre-emergence Test ECHCG, percentage damage caused to the plant (five-point scale)",[2]; 250 g/Ha (*),2 (2=21-40%)
same,"Pre-emergence Test ECHCG, percentage damage caused to the plant (five-point scale)",[2]; 1000 g/ha,3 (3=41-60%)
same,"Pre-emergence Test ZEAMX, percentage damage caused to the plant (five-point scale)",Zea mays (ZEAMX) [3]; 250 g/Ha (*),0
same,"Pre-emergence Test ZEAMX, percentage damage caused to the plant (five-point scale)",Zea mays (ZEAMX) [3]; 1000 g/ha,0
same,"Pre-emergence Test IPOHE, percentage damage caused to the plant (five-point scale)",[4]; 250 g/Ha (*),0
same,"Pre-emergence Test IPOHE, percentage damage caused to the plant (five-point scale)",[4]; 1000 g/ha,0
same,"Pre-emergence Test AMAPA, percentage damage caused to the plant (five-point scale)",[5]; 250 g/Ha (*),0
same,"Pre-emergence Test AMAPA, percentage damage caused to the plant (five-point scale)",[5]; 1000 g/ha,0
same,"Pre-emergence Test AMARE, percentage damage caused to the plant (five-point scale)",[6]; 250 g/Ha (*),0
same,"Pre-emergence Test AMARE, percentage damage caused to the plant (five-point scale)",[6]; 1000 g/ha,0
same,"percentage damage caused to the plant, SETFA (five-point scale)",Setaria faberi (SETFA) [7]; 250 g/Ha,3 (3=41-60%)
same,"percentage damage caused to the plant, SETFA (five-point scale)",Setaria faberi (SETFA) [7]; 1000 g/ha,4 (4=61-80%)
same,"percentage damage caused to the plant, ECHCG (five-point scale)",[8]; 250 g/Ha,3 (3=41-60%)
same,"percentage damage caused to the plant, ECHCG (five-point scale)",[8]; 1000 g/ha,4 (4=61-80%)
same,"percentage damage caused to the plant, ZEAMX (five-point scale)",Zea mays (ZEAMX) [9]; 250 g/Ha,1 (1=0-20%)
same,"percentage damage caused to the plant, ZEAMX (five-point scale)",Zea mays (ZEAMX) [9]; 1000 g/ha,3 (3=41-60%)
same,"percentage damage caused to the plant, IPOHE (five-point scale)",[10]; 250 g/Ha,2 (2=21-40%)
same,"percentage damage caused to the plant, IPOHE (five-point scale)",[10]; 1000 g/ha,1 (1=0-20%)
same,"percentage damage caused to the plant, AMAPA (five-point scale)",[11]; 250 g/Ha,0
same,"percentage damage caused to the plant, AMAPA (five-point scale)",[11]; 1000 g/ha,1 (1=0-20%)
same,"percentage damage caused to the plant, AMARE (five-point scale)",[12]; 250 g/Ha,0
same,"percentage damage caused to the plant, AMARE (five-point scale)",[12]; 1000 g/ha,1 (1=0-20%)
